According to patent US8492374B2, “Azaazulene compounds” (Industrial Technology Research Institute, priority 2009, dated 2013):

Assays:
[1] = system: MV4-11 (FLT3-ITD) subcutaneous tumor xenograft; test: MV4-11 subcutaneous tumor xenograft model; assay type: in vivo, BALB/c nude mice; settings: for tumor complete regression of all mouse: oral gavage
Method: The procedures for establishing tumor xenografts and the dosing of B26 were carried out and accordance with ITRI institutional animal care and use committee in an IACUC. Female BALB/c nude mice (6 to 8 weeks old) were purchased from BioLASCO Co., Ltd. (Taipei, Taiwan). Female BALB/c nude mice were implanted subcutaneously in the right flank with 1×10^7 MV4-11 (FLT3-ITD) cells per mice. Treatments were initiated when tumors were 150 to 200 mm^3 in size. Mice were randomly assigned into cohorts (typically 4 mice per group for efficacy studies). B26 (50 and 150 mg/kg, bid.) and vehicle were given via oral gavage for 14 days from the 16th day after inoculation. Tumor volumes were assessed everyday and body weights were assessed two times weekly. Caliper measurements of tumors were converted into mean tumor volume using the formula: 0.5×[length×(width)^2].
Compound B26 of this invention is a novel and potent FLT3 inhibitor with promising anti-tumor and anti-leukemia activity.

[2] = molecular target: T1, KDR kinase (Homo sapiens, UniProt P35968); test: KDR kinase DELFIA assay (HTScan VEGFR-2 Kinase Assay Kit); assay type: biochemical; settings: 20 uM ATP
T1 construct: human VEGFR-2 (Val789-Val1356); GST (N); purchased Cell Signaling Technology HTScan VEGFR-2 Kinase Assay Kit; host or cells: baculovirus expression system
T1 sequence (P35968 789-1356): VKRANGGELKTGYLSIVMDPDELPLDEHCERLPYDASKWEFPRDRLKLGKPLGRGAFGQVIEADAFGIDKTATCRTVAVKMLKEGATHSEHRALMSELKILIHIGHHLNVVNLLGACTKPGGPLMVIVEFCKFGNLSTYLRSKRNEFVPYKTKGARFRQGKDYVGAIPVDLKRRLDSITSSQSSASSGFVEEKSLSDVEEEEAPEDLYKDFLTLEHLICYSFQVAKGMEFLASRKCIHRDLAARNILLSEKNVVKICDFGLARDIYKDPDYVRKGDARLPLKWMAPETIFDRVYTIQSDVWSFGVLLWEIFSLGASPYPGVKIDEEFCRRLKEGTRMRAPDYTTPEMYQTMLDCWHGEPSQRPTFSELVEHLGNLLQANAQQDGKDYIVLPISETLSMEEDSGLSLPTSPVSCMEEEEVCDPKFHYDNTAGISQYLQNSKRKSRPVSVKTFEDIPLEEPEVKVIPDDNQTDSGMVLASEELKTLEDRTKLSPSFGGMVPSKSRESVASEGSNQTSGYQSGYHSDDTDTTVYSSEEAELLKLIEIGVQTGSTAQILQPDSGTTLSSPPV
Method: Azaazulene Compounds of this invention were treated for their efficacy in inhibiting activities of FLT-3, c-KIT and KDR kinases by biochemical DELFIA (Dissociation Enhanced Lanthanide FIA) assays according to the procedure described below. The assays were conducted by, Division of Cell Engineering, Biomedical Engineering Research Laboratories, Industrial Technology Research Institute, Bldg. 53, 195, sec. 4, Chung Hsing Rd. Chutung, Hsinchu, Taiwan 310, R.O.C.
The KDR assay was conducted following the protocol described in Protocol for HTScan™ VEGFR-2 Kinase Assay Kit (Cell Signaling Technology™).

[3] = molecular target: FGFR1 (Homo sapiens, UniProt P11362); test: Kinase panel assay (SelectScreen Kinase Profiling, Invitrogen); assay type: biochemical; settings: 1000 nM of compound B26
Method: (§1) The kinase panel assay of compound B26 of this invention was performed by SelectScreen® Kinase Profiling Services of Invitrogen. The inhibitory effects of 1000 nM of compound B26 against various kinases whom shown >50% inhibitory effects are summarized in following Table 5.

[4] = molecular target: NTRK3 (TRKC) (Homo sapiens, UniProt Q16288); test: as above; assay type: biochemical; settings: 1000 nM of compound B26
Method: as §1

[5] = molecular target: FGR (Homo sapiens, UniProt P09769); test: as above; assay type: biochemical; settings: 1000 nM of compound B26
Method: as §1

[6] = molecular target: CSF1R (FMS) (Homo sapiens, UniProt P07333); test: as above; assay type: biochemical; settings: 1000 nM of compound B26
Method: as §1

[7] = molecular target: SRC (Homo sapiens, UniProt P12931); test: as above; assay type: biochemical; settings: 1000 nM of compound B26
Method: as §1

[8] = molecular target: YES1 (Homo sapiens, UniProt P07947); test: as above; assay type: biochemical; settings: 1000 nM of compound B26
Chain of YES1 (P07947 whole entry): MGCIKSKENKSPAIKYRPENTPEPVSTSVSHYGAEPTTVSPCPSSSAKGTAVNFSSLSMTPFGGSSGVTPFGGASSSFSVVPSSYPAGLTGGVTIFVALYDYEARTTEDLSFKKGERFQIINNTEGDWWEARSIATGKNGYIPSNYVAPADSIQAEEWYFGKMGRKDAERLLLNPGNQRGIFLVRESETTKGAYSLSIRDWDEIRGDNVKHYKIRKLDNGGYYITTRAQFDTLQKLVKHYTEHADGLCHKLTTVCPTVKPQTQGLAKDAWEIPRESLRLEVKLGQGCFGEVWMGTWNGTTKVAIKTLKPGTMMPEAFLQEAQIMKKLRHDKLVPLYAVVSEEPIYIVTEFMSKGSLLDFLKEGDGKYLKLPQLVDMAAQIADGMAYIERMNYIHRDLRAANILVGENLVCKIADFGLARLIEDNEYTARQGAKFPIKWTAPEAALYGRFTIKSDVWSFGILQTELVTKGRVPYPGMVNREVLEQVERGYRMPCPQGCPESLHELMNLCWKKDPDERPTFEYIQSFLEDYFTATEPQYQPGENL
Method: as §1

[9] = molecular target: STK4 (MST1) (Homo sapiens, UniProt Q13043); test: as above; assay type: biochemical; settings: 1000 nM of compound B26
Chain of STK4 (MST1) (Q13043 whole entry): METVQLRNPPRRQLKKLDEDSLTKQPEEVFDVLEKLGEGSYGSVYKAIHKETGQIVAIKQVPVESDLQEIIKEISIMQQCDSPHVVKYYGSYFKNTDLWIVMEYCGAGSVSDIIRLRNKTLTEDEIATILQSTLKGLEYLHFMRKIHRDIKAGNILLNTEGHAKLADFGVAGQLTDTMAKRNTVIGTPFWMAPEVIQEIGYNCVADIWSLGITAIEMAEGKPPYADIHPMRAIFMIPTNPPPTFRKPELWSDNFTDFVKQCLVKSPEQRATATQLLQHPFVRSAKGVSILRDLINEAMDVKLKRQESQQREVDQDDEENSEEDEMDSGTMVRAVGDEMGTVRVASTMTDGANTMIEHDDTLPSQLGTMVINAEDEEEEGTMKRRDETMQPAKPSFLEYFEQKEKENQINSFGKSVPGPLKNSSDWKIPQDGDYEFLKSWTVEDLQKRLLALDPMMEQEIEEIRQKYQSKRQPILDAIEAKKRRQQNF
Method: as §1

[10] = molecular target: KIT (Homo sapiens, UniProt P10721); test: as above; assay type: biochemical; settings: 1000 nM of compound B26
Chain of KIT (P10721 26-976): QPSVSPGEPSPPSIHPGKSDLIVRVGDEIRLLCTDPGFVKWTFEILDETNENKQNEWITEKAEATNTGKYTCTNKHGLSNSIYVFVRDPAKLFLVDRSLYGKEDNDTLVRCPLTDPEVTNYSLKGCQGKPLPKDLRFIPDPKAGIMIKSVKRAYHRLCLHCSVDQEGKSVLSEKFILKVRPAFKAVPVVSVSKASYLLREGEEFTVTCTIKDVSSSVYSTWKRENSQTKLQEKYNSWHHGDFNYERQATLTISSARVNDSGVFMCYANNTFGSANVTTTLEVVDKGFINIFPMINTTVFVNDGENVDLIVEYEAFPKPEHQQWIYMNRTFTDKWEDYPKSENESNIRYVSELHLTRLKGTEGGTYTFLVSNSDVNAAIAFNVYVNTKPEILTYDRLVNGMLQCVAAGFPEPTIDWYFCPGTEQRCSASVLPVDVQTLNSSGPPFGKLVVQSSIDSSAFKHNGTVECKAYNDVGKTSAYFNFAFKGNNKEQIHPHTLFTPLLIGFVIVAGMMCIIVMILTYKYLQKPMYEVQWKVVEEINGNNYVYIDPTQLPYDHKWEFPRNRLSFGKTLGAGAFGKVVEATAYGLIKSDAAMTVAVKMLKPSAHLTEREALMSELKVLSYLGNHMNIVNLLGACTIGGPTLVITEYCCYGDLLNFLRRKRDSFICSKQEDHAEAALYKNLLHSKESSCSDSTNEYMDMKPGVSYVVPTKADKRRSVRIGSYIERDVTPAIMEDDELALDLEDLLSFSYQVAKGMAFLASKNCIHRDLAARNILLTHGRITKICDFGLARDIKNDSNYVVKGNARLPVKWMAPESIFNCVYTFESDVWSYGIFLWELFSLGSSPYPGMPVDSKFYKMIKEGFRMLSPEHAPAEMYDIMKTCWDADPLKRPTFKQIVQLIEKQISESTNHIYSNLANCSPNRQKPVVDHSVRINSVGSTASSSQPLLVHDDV
Method: as §1

[11] = molecular target: FLT4 (VEGFR3) (Homo sapiens, UniProt P35916); test: as above; assay type: biochemical; settings: 1000 nM of compound B26
Method: as §1

[12] = molecular target: LYN B (Homo sapiens, UniProt P07948); test: as above; assay type: biochemical; settings: 1000 nM of compound B26
Method: as §1

[13] = molecular target: SRC N1 (Homo sapiens, UniProt P12931); test: as above; assay type: biochemical; settings: 1000 nM of compound B26
Method: as §1

[14] = molecular target: PHKG1 (Homo sapiens, UniProt Q16816); test: as above; assay type: biochemical; settings: 1000 nM of compound B26
Chain of PHKG1 (Q16816 whole entry): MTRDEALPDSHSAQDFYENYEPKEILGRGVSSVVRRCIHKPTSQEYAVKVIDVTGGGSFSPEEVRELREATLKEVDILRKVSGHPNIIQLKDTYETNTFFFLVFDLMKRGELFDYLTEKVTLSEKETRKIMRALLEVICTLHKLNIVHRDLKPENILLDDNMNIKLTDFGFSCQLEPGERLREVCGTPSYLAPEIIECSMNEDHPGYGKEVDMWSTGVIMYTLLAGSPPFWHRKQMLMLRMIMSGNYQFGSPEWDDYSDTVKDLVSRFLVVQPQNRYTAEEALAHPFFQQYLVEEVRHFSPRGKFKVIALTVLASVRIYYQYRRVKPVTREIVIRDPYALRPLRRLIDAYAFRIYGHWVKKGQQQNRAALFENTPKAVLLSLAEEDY
Method: as §1

[15] = molecular target: LCK (Homo sapiens, UniProt P06239); test: as above; assay type: biochemical; settings: 1000 nM of compound B26
Chain of LCK (P06239 whole entry): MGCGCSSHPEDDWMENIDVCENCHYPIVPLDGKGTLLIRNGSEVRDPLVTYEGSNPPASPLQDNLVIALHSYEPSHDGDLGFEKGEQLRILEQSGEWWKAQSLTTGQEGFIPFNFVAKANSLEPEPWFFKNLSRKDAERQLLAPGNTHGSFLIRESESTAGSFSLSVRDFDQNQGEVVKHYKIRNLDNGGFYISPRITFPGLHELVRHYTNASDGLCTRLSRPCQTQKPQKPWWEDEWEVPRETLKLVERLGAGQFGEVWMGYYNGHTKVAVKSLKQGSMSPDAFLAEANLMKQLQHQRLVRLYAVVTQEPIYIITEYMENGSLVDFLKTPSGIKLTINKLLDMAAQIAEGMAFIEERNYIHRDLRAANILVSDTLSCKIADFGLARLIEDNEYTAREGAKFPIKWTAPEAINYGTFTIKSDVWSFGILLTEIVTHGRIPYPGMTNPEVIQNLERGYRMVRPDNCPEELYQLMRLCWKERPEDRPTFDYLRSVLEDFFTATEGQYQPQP
Method: as §1

[16] = molecular target: RET (Homo sapiens, UniProt P07949); test: as above; assay type: biochemical; settings: 1000 nM of compound B26
Method: as §1

[17] = molecular target: BLK (Homo sapiens, UniProt P51451); test: as above; assay type: biochemical; settings: 1000 nM of compound B26
Chain of BLK (P51451 whole entry): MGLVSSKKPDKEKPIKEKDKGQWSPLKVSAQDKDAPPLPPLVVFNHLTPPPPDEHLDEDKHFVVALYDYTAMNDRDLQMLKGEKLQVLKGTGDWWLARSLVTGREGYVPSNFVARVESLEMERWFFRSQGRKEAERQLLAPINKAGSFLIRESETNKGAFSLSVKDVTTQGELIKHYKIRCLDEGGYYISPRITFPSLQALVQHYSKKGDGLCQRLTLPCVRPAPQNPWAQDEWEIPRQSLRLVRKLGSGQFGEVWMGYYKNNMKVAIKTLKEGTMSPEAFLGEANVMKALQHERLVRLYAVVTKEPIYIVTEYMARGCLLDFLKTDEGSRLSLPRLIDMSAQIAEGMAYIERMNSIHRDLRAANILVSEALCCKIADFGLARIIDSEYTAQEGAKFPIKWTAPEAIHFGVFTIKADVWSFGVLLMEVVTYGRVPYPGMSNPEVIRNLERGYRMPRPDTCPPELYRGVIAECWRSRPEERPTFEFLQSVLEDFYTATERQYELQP
Method: as §1

[18] = molecular target: MAP4K5 (KHS1) (Homo sapiens, UniProt Q9Y4K4); test: as above; assay type: biochemical; settings: 1000 nM of compound B26
Method: as §1

[19] = molecular target: FGFR3 (Homo sapiens, UniProt P22607); test: as above; assay type: biochemical; settings: 1000 nM of compound B26
Method: as §1

[20] = molecular target: RET Y791F (Homo sapiens, UniProt P07949, Y791F); test: as above; assay type: biochemical; settings: 1000 nM of compound B26
Method: as §1

[21] = molecular target: FGFR3 K650E (Homo sapiens, UniProt P22607, K650E); test: as above; assay type: biochemical; settings: 1000 nM of compound B26
Method: as §1

[22] = molecular target: FGFR2 (Homo sapiens, UniProt P21802); test: as above; assay type: biochemical; settings: 1000 nM of compound B26
Chain of FGFR2 (P21802 22-821): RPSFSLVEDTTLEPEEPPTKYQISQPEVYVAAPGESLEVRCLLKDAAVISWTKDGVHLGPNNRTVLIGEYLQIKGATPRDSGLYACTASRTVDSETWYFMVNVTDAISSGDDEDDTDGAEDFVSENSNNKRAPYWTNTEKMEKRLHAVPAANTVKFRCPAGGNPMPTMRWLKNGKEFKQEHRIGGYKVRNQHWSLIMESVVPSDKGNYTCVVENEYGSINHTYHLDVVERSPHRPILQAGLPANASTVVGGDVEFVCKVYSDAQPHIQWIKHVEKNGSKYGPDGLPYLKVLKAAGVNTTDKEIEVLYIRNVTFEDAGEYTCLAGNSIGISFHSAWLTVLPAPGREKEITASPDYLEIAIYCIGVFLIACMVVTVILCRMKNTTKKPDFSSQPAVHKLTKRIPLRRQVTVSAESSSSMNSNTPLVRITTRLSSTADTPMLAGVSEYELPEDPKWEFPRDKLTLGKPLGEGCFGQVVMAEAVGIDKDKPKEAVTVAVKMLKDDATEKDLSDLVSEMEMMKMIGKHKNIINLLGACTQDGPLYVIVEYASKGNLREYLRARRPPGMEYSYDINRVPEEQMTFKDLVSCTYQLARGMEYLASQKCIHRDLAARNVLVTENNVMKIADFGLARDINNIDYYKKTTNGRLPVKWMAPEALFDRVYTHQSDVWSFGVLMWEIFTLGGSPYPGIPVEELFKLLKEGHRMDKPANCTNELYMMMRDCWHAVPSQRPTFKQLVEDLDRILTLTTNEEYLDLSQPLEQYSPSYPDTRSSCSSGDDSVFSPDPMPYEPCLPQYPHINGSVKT
Method: as §1

[23] = molecular target: T2, FLT-3 kinase (Homo sapiens, UniProt P36888); test: FLT-3 kinase DELFIA assay (HTScan FLT-3 Kinase Assay Kit); assay type: biochemical; settings: 20 uM ATP
T2 construct: human FLT-3 (Arg571-Ser993); GST (N); purchased Cell Signaling Technology HTScan FLT-3 Kinase Assay Kit; host or cells: baculovirus expression system
T2 sequence (P36888 571-993): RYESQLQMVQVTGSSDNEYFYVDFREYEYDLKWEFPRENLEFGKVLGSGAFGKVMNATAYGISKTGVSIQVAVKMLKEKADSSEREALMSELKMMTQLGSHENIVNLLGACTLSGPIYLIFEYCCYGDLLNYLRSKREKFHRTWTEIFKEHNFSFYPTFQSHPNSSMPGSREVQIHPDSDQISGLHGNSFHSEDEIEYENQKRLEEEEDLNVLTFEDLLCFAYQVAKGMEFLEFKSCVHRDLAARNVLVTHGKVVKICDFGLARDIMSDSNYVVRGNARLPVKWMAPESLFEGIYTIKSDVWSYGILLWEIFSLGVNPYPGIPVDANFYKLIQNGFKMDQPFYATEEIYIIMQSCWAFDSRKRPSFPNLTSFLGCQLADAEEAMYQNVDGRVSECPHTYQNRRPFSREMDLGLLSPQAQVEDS

For `CN1CCN(c2ccc3[nH]c(-c4c5cccccc-5[nH]c4=O)nc3c2)CC1` [Compound B26], the “tumor complete regression of all mouse” value ([1]; 50 mg/kg (bid)) was 9 days, the “tumor complete regression of all mouse” value ([1]; 150 mg/kg (bid)) was 7 days and the antitumor effect ([1]; oral, 50 or 150 mg/kg bid for 14 days) was “potent and significant antitumor effect in a dose-dependent manner”. For the same compound, the inhibition at 0.1 µM ([2]; 0.1 uM compound, read-out: Kinases inhibitory activities against KDR kinase, 0.1 uM) was 71.3%, the inhibition at 1 µM ([2]; 1 uM compound, read-out: Kinases inhibitory activities against KDR kinase, 1 uM) was 96.9% and the inhibition at 1 µM [3] was 54%. The inhibition at 1 µM [4] was 76%, the inhibition at 1 µM [5] was 69% and the inhibition at 1 µM [6] was 60%. It also gave an inhibition at 1 µM [7] of 50%, an inhibition at 1 µM [8] of 73% and an inhibition at 1 µM [9] of 59%. It also gave an inhibition at 1 µM [10] of 61%, an inhibition at 1 µM [11] of 50% and an inhibition at 1 µM [12] of 51%. It also gave an inhibition at 1 µM [13] of 52%, an inhibition at 1 µM [14] of 53% and an inhibition at 1 µM [15] of 63%. The inhibition at 1 µM [16] was 81%, the inhibition at 1 µM [17] was 52% and the inhibition at 1 µM [18] was 60%. It also gave an inhibition at 1 µM [19] of 62%, an inhibition at 1 µM [20] of 79% and an inhibition at 1 µM [21] of 47%. For the same compound, the inhibition at 1 µM [22] was 48%, the inhibition at 0.1 µM ([23]; 0.1 uM compound) was 45.6% and the inhibition at 1 µM ([23]; 1 uM compound) was 91.2%.
